Data: patent publication US20040127519A1 (Pharmacia Corporation, priority 2002, published 2004)

Target: Recombinant MAPKAPK2 (Homo sapiens, UniProt P49137)
Assay: Determination of MK-2 IC50 (HSP-peptide phosphorylation, anion exchange resin capture assay)
Type: biochemical
Conditions: MK-2 Avg. IC50, Table 2, tricyclic aminocyanopyridine MK-2 inhibitors
Procedure: The phosphorylation of HSP-peptide ([…]) by MAPKAPK2 was measured using an anion exchange resin capture assay method. […] The reaction was terminated and [γ^33P]ATP was removed from solution by the addition of 150 μl of AG 1×8 ion exchange resin in 900 mM sodium formate pH 3.0. A 50 μl aliquot of head volume was removed from the quenched reaction mixture and added to a 96-well plate, 150 μl of Microscint-40 (Packard) was added and the amount of phosphorylated-peptide was determined. Allow the Microscint to sit in the plates for 60 minutes prior to counting.
Compounds are evaluated as potential inhibitors of the MK2 kinase by measuring their effects on MK2 phosphorylation of the peptide substrate. Compounds may be screened initially at two concentrations prior to determination of IC50 values. Screening results are expressed as percent inhibition at the concentrations of compound tested. For IC50 value determinations, compounds are tested at six concentrations in ten-fold serial dilutions with each concentration tested in triplicate. Results are expressed as IC50 values in micromolar. The assay is performed at a final concentration of 2% DMSO.

Recombinant MAPKAPK2, sequence (P49137 whole entry, species assumed): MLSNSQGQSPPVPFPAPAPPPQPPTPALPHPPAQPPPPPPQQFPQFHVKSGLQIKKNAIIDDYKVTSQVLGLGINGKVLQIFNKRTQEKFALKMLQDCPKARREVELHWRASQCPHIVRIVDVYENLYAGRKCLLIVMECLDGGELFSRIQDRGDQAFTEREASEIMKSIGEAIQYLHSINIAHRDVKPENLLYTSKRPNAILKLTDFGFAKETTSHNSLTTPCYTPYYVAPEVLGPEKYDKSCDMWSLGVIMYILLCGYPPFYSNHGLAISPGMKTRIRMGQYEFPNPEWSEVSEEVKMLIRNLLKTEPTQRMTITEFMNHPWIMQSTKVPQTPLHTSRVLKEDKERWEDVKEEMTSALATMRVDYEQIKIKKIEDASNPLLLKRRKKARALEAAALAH

Point of comparison: `COc1cccc2c1Oc1nc(N)c(C#N)c(N)c1C2C(C#N)C#N` (stereo not shown) [Example 54], IC50 21.2 µM. Against it:
- CN(C)c1ccc2c(c1)Cc1c(nc(N)c(C#N)c1N)O2 [Example 52] — within 1.5-fold, 17.6 µM
- COc1ccc2c(c1)Cc1c(nc(N)c(C#N)c1N)O2 [Example 53] — within 1.5-fold, 19.7 µM
- COc1cc2c(cc1OC)Oc1nc(N)c(C#N)c(NCc3ccccc3)c1C2 [Example 55] — within 1.5-fold, 27.4 µM
- C=CCOc1ccc2c(c1)Oc1nc(N)c(C#N)c(N)c1C2 [Example 56] — 1.6-fold higher, 33.8 µM
- N#Cc1c(N)nc2c(c1N)Cc1cccc(F)c1S2 [Example 57] — 2-fold higher, 42.2 µM
- COc1ccc2c(c1)Cc1c(nc(N)c(C#N)c1N)O2 [Example 58] — 2-fold higher, 43 µM
- N#Cc1c(N)nc2c(c1N)Cc1cccc(OCCN3CCCC3)c1O2 [Example 59] — 2.1-fold higher, 45.2 µM
- N#Cc1c(N)nc2c(c1N)Cc1cc([N+](=O)[O-])ccc1O2 [Example 60] — 2.9-fold higher, 62.2 µM
- N#Cc1c(N)nc2c(c1N)Cc1cccc(OCC(=O)O)c1O2 [Example 62] — 3.4-fold higher, 72.2 µM
- COc1cc2c(cc1OC)Oc1nc(N)c(C#N)c(NCCN(C)C)c1C2 [Example 63] — 3.7-fold higher, 79.1 µM
- N#Cc1c(N)nc2c(c1N)Cc1cc([N+](=O)[O-])ccc1S2(=O)=O [Example 64] — 3.8-fold higher, 80.8 µM
- N#Cc1c(N)nc2c(c1N)Cc1cc(-c3ccccc3)ccc1O2 [Example 65] — 4-fold higher, 83.8 µM
- Cc1cc(Cl)cc2c1Oc1nc(N)c(C#N)c(N)c1C2 [Example 66] — 6.4-fold higher, 136 µM
- CCNc1nc2c(c(NCC)c1C#N)Cc1ccc(OCC)cc1O2 [Example 68] — 7-fold higher, 148 µM
- COc1ccc2c(c1)Oc1nc(N)c(C#N)c(N)c1C2c1ccccc1F (stereo not shown) [Example 69] — 7.1-fold higher, 151 µM
- N#Cc1c(N)nc2c(c1N)Cc1cccc(OCCO)c1O2 [Example 70] — 7.3-fold higher, 154 µM
- N#Cc1c(N)nc2c(c1N)Cc1cccc(OCCN)c1O2 [Example 71] — 7.6-fold higher, 161 µM

Same assay, conditions: MK-2 Avg. IC50, Table I, aminocyanopyridine MK-2 inhibitors

Point of comparison: `CS(=O)(=O)c1ccc(-c2cc(-c3cnc[nH]3)c(C#N)c(N)n2)cc1` [Example 72], IC50 45.3 µM. Against it:
- N#Cc1c(-c2ccccc2F)cc(-c2cccc(O)c2)nc1N [Example 51] — 1.9-fold lower, 24.2 µM
- N#Cc1c(-c2ccccc2Br)cc(-c2ccco2)nc1N [Example 53] — 1.7-fold lower, 26.1 µM
- N#Cc1c(-c2ccccc2)cc(-c2cccs2)nc1N [Example 55] — 1.7-fold lower, 26.9 µM
- COc1cccc(-c2c(C#N)c(N)nc3c2CCc2[nH]ncc2-3)c1 [Example 56] — 1.6-fold lower, 27.8 µM
- Cn1ncc2c1CCc1c-2nc(N)c(C#N)c1-c1ccco1 [Example 57] — 1.6-fold lower, 28.3 µM
- N#Cc1c(-c2ccccc2F)cc(-c2ccc[nH]2)nc1N [Example 58] — 1.5-fold lower, 29.3 µM
- CC1Cc2n[nH]cc2-c2nc(N)c(C#N)c(-c3ccco3)c21 (stereo not shown) [Example 59] — within 1.5-fold, 31.3 µM
- Cn1ccc(-c2cc(-c3ccco3)c(C#N)c(N)n2)c1 [Example 60] — within 1.5-fold, 32.1 µM
- CC(=O)Nc1ccc(-c2c(C#N)c(N)nc3c2CCc2[nH]ncc2-3)cc1 [Example 62] — within 1.5-fold, 35.9 µM
- COc1ccc(Nc2c(C#N)c(N)nc3c2CC(C(F)(F)F)O3)cc1 (stereo not shown) [Example 63] — within 1.5-fold, 36.4 µM
- CC(C)(C)NS(=O)(=O)c1ccc(-c2cc(-c3ccco3)c(C#N)c(N)n2)cc1 [Example 64] — within 1.5-fold, 36.4 µM
- CCC1Cc2c(nc(N)c(C#N)c2N)O1 (stereo not shown) [Example 65] — within 1.5-fold, 37.9 µM
- N#Cc1c(-c2ccco2)cc(-c2ccncc2)nc1N [Example 66] — within 1.5-fold, 39.9 µM
- CSc1cc(N)c(C#N)c(N)n1 [Example 67] — within 1.5-fold, 41.6 µM
- N#Cc1c(N)nc2c(c1-c1cccc(C(=O)O)c1)CCc1[nH]ncc1-2 [Example 68] — within 1.5-fold, 41.7 µM
- N#Cc1c(-c2cnc[nH]2)cc(-c2ccc(Cl)cc2)nc1N [Example 69] — within 1.5-fold, 42.9 µM
- N#Cc1c(N)nc2c(c1-c1cccc3c1OCO3)CCc1[nH]ncc1-2 [Example 70] — within 1.5-fold, 43.2 µM
- CC1Cc2c(nc(N)c(C#N)c2N)O1 (stereo not shown) [Example 71] — within 1.5-fold, 44.1 µM
- N#Cc1c(N)nc2ccccc2c1N [Example 73] — within 1.5-fold, 45.5 µM
- N#Cc1c(N)nc2c(c1-c1ccco1)CCc1cc(N)ccc1-2 [Example 74] — within 1.5-fold, 46.8 µM
- N#Cc1c(-c2ccco2)cc(-c2ccco2)nc1N [Example 75] — within 1.5-fold, 47.6 µM
